According to patent US9274101B2 (BIOLOG, Inc., priority 2001, dated 2016):

Experiments:
E. coli MG1655 [1] = format: cell-based, Escherichia coli
E. coli MG1655 [2] = format: cell-based, Escherichia coli; remark: listed apart in the source
[3] = system: DMSO-differentiated HL-60 cells; experiment: Energy use by DMSO-differentiated HL-60 cells; format: cell-based, human; settings: Homo sapiens, HL-60, 24 h, read-out: Energy Use by DMSO-Differentiated HL-60 Cells
Experimental: In this Example, methods for testing in vitro-differentiated cells for their ability to use multiple energy sources are described. Prior to differentiation, HL-60 cells were cultured as described in Example 27. DMSO-induced differentiation (Odani et al., Res. Commun. Mol. Pathol. Pharmacol. 108:381-391 [2000]; and Yamaguchi et al., Biol. Pharm. Bull. 20:943-947 [1997]) was accomplished by incubation of the cells in the presence of 1.25% DMSO for 3 days.
After washing, HL-60 cells were resuspended in DME-R. An aliquot of the cell suspension was counted by trypan blue exclusion and the cell density was adjusted to 6.67×10^5/mL. Fifty μL of DME-R were added to each well of the appropriate number of half area, 96-well plates, followed by 25 μL of the appropriate dilution of each test energy source. Stocks of 133 mM of each test chemical were prepared in tissue culture grade water, sterile filtered, and dilutions were prepared in a master plate so that, upon dilution into a half-area 96-well microtiter plate to a total well volume of 150 μL, the final concentrations would be 0.033 to 20 mM. Negative control wells received 25 μL of tissue culture grade water. The cells were plated at a volume of 75 μL/well, giving a final cell density of 5×10^4/well. For each plate containing energy sources and cells, a second, control plate containing only energy sources was prepared with the same total volume of liquid (148 μL/well). Plates were incubated at 5% CO2, 90-100% humidity, and 37° C. for 24 hours prior to addition of the MTS/MPMS calorimetric reagent (7.5 μL/well). The color formed in each well 24 hours after addition of the colorimetric reagent, was measured with a plate reader at 490 nm with a reference wavelength of 650 nm. OD values from the control plate were subtracted from the OD values obtained with cells prior to normalizing the data to % negative control (cells without added energy source).

HepG2 cells = HepG2 cells on flat bottom plastic wells, energy sources at a range of concentrations; format: cell-based, human; settings: Homo sapiens, HepG2, 72 h, read-out: HepG2 Cells Responses After 72 hours in Culture and a 4 hour Color Development Period
Experimental: In this Example, methods for testing adherent cells for their ability to use multiple carbon sources are described. The human hepatocellular carcinoma cell line known as HepG2 (Knowles et al., Science, 209:497-499 [1980]) was chosen for this experiment. However, this application is not intended to be limited to the use of HepG2 cells, hepatocytes, carcinoma cells or even human cells.
HepG2 cells were grown in Falcon tissue culture flasks with vented tops. The culture medium used was Minimal Essential medium (MEM, Invitrogen 11095) with 1 g/L glucose, 2 mM L-glutamine, 2.2 g/L sodium bicarbonate, 10 mg/L phenol red, and supplemented with 0.1 mM Nonessential Amino Acids, 1 mM sodium pyruvate, 50 U/mL penicillin, 50 μg/mL streptomycin, and 10% (v/v) heat inactivated fetal bovine serum (HI FBS, Invitrogen 16140). The cells were seeded at 2×10^4/cm^2 and used 3 days after initiation of culture. During all incubations, the cells were kept in an atmosphere of 5% CO2, 90-100% humidity, and 37° C. Cells were harvested by trypsinization for 3 minutes in 0.25% trypsin-1 mM EDTA and resuspended in an equal volume of culture medium. A viable cell count was obtained by trypan blue exclusion and an appropriate volume of the cell suspension (to have 33% more viable cells than was sufficient for the experiment) was placed in a polypropylene centrifuge tube. Cells were pelleted by centrifugation at 350×g for 10 minutes at room temperature, resuspended in Dulbecco's Phosphate Buffered Saline (D-PBS, Invitrogen 14040) and centrifuged a second time. Cells were then resuspended to two-thirds the final volume needed in Dulbecco' ? s Modified Eagle's Medium (DME, Sigma D5030) containing 10% HI FBS and penicillin-streptomycin but without glucose, L-glutamine, sodium pyruvate, and phenol red. An aliquot was counted by trypan blue exclusion and the cell density was adjusted to 1.28×10^5/mL. Cells were plated in 100 μL/well in wells of standard, 96-well plates (4×10^4 cells/cm^2) and allowed to adhere overnight prior to addition of test chemicals.
For assay, the culture medium was aspirated, the wells were washed once with D-PBS and 170 μL of DME were added to each well, followed by 30 μL of the appropriate dilution of each test energy source. Stocks of 133 mM of each test chemical were prepared in tissue culture grade water, sterile filtered, and dilutions were prepared in a master plate so that, upon dilution into a regular 96-well MICROPLATE a total well volume of 200 μL, the final concentrations would be 0.033 to 20 mM. Negative control wells received 30 μL of tissue culture grade water. For each plate containing energy sources and cells, a second, control plate containing only energy sources was prepared. Plates were incubated at 5% CO2, 90-100% humidity, and 37° C. for 48 to 72 hours prior to addition of the MTS/PMS colorometric reagent (10 μL/well). The color formed in each well 4-24 hours after addition of the calorimetric reagent, was measured with a plate reader at 490 nm with a reference wavelength of 650 nm. OD values from the control plate were subtracted from the OD values obtained with cells prior to normalizing the data to % negative control (cells without added energy source).

[4] = system: Undifferentiated HL-60 cells; experiment: Energy use by undifferentiated HL-60 cells; format: cell-based, human; settings: Homo sapiens, HL-60, 24 h, read-out: Energy Use by Undifferentiated HL-60 Cells
HL-60 cells = experiment: HL-60 responses to selected compounds at a range of concentrations; format: cell-based, human
Experimental: In this Example, methods for testing unattached cells for their ability to use various concentrations of selected carbon sources are described. The carbon sources used in this Example were identified by the methods disclosed in Example 27. Similarly, HL-60 cells were cultured as described in Example 27.
After washing, HL-60 cells were resuspended in DME-R. An aliquot of the cell suspension was counted by trypan blue exclusion and the cell density was adjusted to 6.67×10^5/mL. Fifty μL of DME-R were added to each well of the appropriate number of half area, 96-well plates, followed by 23 μL of the appropriate dilution of each test energy source. Stocks of 133 mM of each test chemical were prepared in tissue culture grade water, sterile filtered, and dilutions were prepared in a master plate so that, upon dilution in a total volume of 150 μL, the final concentrations would be 0.033 to 20 mM. Negative control wells received 23 μL of tissue culture grade water. The cells were plated at a volume of 75 μL/well, giving a final cell density of 5×10^4/well. For each plate containing energy sources and cells, a second, control plate containing only energy sources was prepared. Plates were incubated at 5% CO2, 90-100% humidity, and 37° C. for 24 hours prior to addition of the MTS/MPMS colorometric reagent (7.5 μL/well). The color formed in each well after an additional 24 hour incubation period, was measured on a plate reader at 490 nm with a reference wavelength of 650 nm. OD values from the control plate were subtracted from the OD values obtained with cells prior to normalizing the data to % negative control (cells without added energy source).

[5] = Homo sapiens, HL-60, read-out: HL-60 Cell Responses to Selected Compounds from PM1 and PM2

## CCSCCC(N)C(=O)O (racemic) [DL-ethionine]
E. coli MG1655 [1]
  suitability as sulfur source (growth, purple color): not suitable

## CSCCC(NC(C)=O)C(=O)O (racemic) [N-acetyl-DL-methionine]
E. coli MG1655 [1]
  suitability as sulfur source (growth, purple color): positive

## CSCCC(NC(=O)CN)C(=O)O (racemic) [glycyl-DL-methionine]
E. coli MG1655 [1]
  suitability as sulfur source (growth, purple color): positive

## CCCCCCCCCCCCS(=O)(=O)O [1-dodecane-sulfonic acid]
E. coli MG1655 [1]
  suitability as sulfur source (growth, purple color): not suitable

## NCCP(=O)(O)O [2-aminoethyl phosphonate]
E. coli MG1655 [1]
  suitability as phosphorus source (growth, purple color): weak positive

## O=C(O)C(CO)OP(=O)(O)O (stereo not drawn) [2-phosphoglyceric acid]
E. coli MG1655 [1]
  suitability as phosphorus source (growth, purple color): positive

## O=CC[C@@H](O)[C@H](O)[C@H](O)COP(=O)(O)O [2′-deoxyglucose 6-phosphate]
E. coli MG1655 [1]
  suitability as phosphorus source (growth, purple color): positive

## O=C(O)[C@H](O)[C@@H](O)[C@H](O)[C@H](O)COP(=O)(O)O [6-phosphogluconic acid]
E. coli MG1655 [1]
  suitability as phosphorus source (growth, purple color): positive

## N=C(N)NCCC[C@H](N)C(=O)O [L-arginine]
E. coli MG1655 [2]
  suitability as nitrogen source (growth, purple color): positive
[3]
  activity at 30 µM: 106%
  activity at 100 µM: 103%
  activity at 330 µM: 122%
  activity at 1000 µM: 126%
  activity at 3300 µM: 123%
  activity at 10000 µM: 132%
  activity at 15000 µM: 119%
  activity at 20000 µM: 93.4%
HepG2 cells
  activity at 30 µM: 127%
  activity at 100 µM: 144%
  activity at 330 µM: 165%
  activity at 1000 µM: 142%
  activity at 3300 µM: 154%
  activity at 10000 µM: 119%
  activity at 15000 µM: 90.8%
  activity at 20000 µM: 60.3%
[4]
  activity at 30 µM: 124%
  activity at 100 µM: 118%
  activity at 330 µM: 114%
  activity at 1000 µM: 109%
  activity at 3300 µM: 115%
  activity at 10000 µM: 132%
  activity at 15000 µM: 140%
  activity at 20000 µM: 126%
HL-60 cells
  response in words: strongly utilized, even at very low concentrations
HL-60 cells; [5]
  activity at 30 µM: 134%
  activity at 100 µM: 138%
  activity at 330 µM: 131%
  activity at 1000 µM: 138%
  activity at 3300 µM: 132%
  activity at 10000 µM: 128%
  activity at 15000 µM: 108%
  activity at 20000 µM: 109%

## N[C@@H](CS(=O)(=O)O)C(=O)O [L-cysteic acid]
E. coli MG1655 [1]
  suitability as sulfur source (growth, purple color): positive

## N[C@@H](CS(=O)O)C(=O)O [L-cysteine sulphinic acid]
E. coli MG1655 [1]
  suitability as sulfur source (growth, purple color): positive

## N[C@@H](CSCSC[C@H](N)C(=O)O)C(=O)O [L-djenkolic acid]
E. coli MG1655 [1]
  suitability as sulfur source (growth, purple color): positive

## CS(=O)(=O)CC[C@H](N)C(=O)O [L-methionine sulfone]
E. coli MG1655 [1]
  suitability as sulfur source (growth, purple color): not suitable

## C[S+]([O-])CC[C@H](N)C(=O)O (stereo partly drawn) [L-methionine sulfoxide]
E. coli MG1655 [1]
  suitability as sulfur source (growth, purple color): positive

## CC(=O)N[C@@H](CS)C(=O)O [N-acetyl cysteine]
E. coli MG1655 [1]
  suitability as sulfur source (growth, purple color): not suitable
